Four molecules from patent US9045507B2, “Coumarin-based amino acids for use in enzyme activity and substrate specificity assays” (UNIVERSITY OF SOUTHERN CALIFORNIA, priority 2005, dated 2015) can be followed below.

What all share (assay type): biochemical
Experiment [1] addresses T1, Protein tyrosine phosphatase from Yersinia enterocolitica (YOP) (Yersinia enterocolitica, UniProt P15273).
T1 construct: purchased Calbiochem
The experiment in a line: Enzyme activity assay: PTP-catalyzed hydrolysis of substrates by YOP. To be noted: pH 7.1, room temperature; for Km: read-out: Km (best fit to the Michaelis-Menten equation). The source says: (§1) Protein tyrosine phosphatase from Yersinia enterocolitica (YOP)^16 and human T-cell PTP (TCPTP)^17 were obtained from Calbiochem in purified form and used as received. Reagents for solid phase peptide synthesis including Fmoc protected amino acids and Rink Amide resin were obtained from Novabiochem and used without further purification. Trichloroethanol (TCE), resorcinol, dicyclohexylcarbodiimide (DCC) and N,N-dimethylaminopyridine (DMAP) were obtained from Lancaster, isopropenyl chloroformate (IPCF) from Acros Organics, trifluoroacetic acid (TFA) from Oakwood Chemicals and methanesulfonic acid, diethyl chlorophosphate and zinc dust were obtained from Aldrich Chemical Company. Dry solvents were obtained from VWR and Aldrich. Fluorinated resorcinols were synthesized according to a literature procedure.^18 All of the chemicals were used as received, except zinc, which was activated prior to use by washing with 20% HCl, followed by water and acetone.
^1H, ^13C, and ^31P NMR spectra were recorded on Bruker AC 250, Bruker AC 360 and Varian 400 MHz instruments. Peptides were purified on a Varian ProStar 210 HPLC system using a preparative-scale C18 reverse-phase column. Mass spectrometric characterization was carried out using an Applied Biosystems Voyager-DE STR MALDI-TOF instrument with α-cyanohydroxycinnamic acid as the matrix. Enzyme assays with fluorogenic substrates were performed on a Molecular Devices Analyst AD multimode plate reader in fluorescence mode with an excitation filter, emission filter and dichroic mirror at 360 nm, 425 nm, and 400 nm, respectively. Enzymatic hydrolysis of the phosphotyrosine-containing peptide DADE-phpsphotyrosine-GPAA (9a) was followed by observing an increase in absorbance at 280 nm using a Varian Cary50 spectrophotometer.
Standard conditions employed to determine the kinetic constants of each substrate with YOP and TCPTP are described below. Substrates were dissolved in DMSO and diluted to the appropriate concentration in DMSO. Aliquots were taken such that each reaction had the same amount of DMSO, which never exceeded 5% of the reaction volume (usually 200 μL). The buffer used for all studies contained 50 mM HEPES, pH 7.1, 100 mM NaCl, 2 mM EDTA, 0.01% Brij 35, 1 mM dithiothreitol (DTT). Prior to each reaction, the enzyme was incubated in buffer with freshly added DTT for 10 min on ice. […] The increase in signal (absorbance or fluorescence) due to substrate hydrolysis was measured every 60 s for 30 min. […] Standard curves were prepared using authentic samples of the appropriate product, relative fluorescence or absorbance units were converted into concentration of product formed, and the resulting data was fit to the Michaelis-Menten equation, providing kinetic parameters for each substrate.

The target in experiment [2] is protein tyrosine kinase Csk (Homo sapiens, UniProt P41240). The experiment in a line: Kinase assay: MU as substrate for Csk. The conditions noted are these: fluorescence decrease, ATP, pH 6.8. The protocol:
Currently kinases assays are done using radioactive ATP. We envision that a highly sensitive fluorescence based assay would be more convenient. MU, an analog of CAP, was tested as a substrate for the protein tyrosine kinase Csk, to check the viability of the idea (FIG. 8). […] In addition, the fluorinated derivatives also serve as sensitive fluorescent assays for PTK activity.
Stock solutions of MU were prepared in DMSO to make 1 and 10 mM solutions. For enzymatic assays, various aliquots of each substrate and DMSO (to a total of 5 μL) were placed on a 96 well plate, incubated with 75 μL buffer (30 mM HEPES, 5 mM MgCl2, 0.01% Brij 35, pH 6.8) for 5 mins, treated with 1 μL of 10 mM ATP, followed by 20 μL of 12.8 nM Csk. The decrease in signal (fluorescence) due to substrate phosphorylation was measured every 60 s for 30 min. Each reaction was run in triplicate and the results averaged. Standard curves were prepared using authentic samples of the appropriate substrate, relative fluorescence units were converted into concentration of substrate left unreacted, and the resulting data was fit to the Michaelis-Menten equation, providing kinetic parameters for each substrate.

Another experiment concerns the target T2, human T-cell PTP (TCPTP) (Homo sapiens, UniProt P17706).
T2 construct: purchased Calbiochem
T2 sequence (P17706 1-415): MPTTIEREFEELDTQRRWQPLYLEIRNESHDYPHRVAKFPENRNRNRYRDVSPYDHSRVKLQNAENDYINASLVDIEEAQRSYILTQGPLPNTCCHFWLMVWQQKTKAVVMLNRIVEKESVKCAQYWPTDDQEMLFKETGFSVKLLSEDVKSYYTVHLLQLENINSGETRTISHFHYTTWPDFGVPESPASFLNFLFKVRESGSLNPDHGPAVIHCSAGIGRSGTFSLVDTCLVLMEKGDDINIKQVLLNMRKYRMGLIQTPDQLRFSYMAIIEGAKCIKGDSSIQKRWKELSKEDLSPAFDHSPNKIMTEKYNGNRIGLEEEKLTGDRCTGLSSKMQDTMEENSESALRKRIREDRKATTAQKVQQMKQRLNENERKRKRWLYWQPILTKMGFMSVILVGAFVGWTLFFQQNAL
Put plainly: Enzyme activity assay: PTP-catalyzed hydrolysis of substrates by TCPTP. The conditions noted are these: pH 7.1, 30° C.
Description: as §1, with “Fluorinated resorcinols were synthesized according to a literature procedure.^18 All of the chemicals were used as received, except zinc, which was activated prior to use by washing with 20% HCl, followed by water and acetone.” left out
^1H, ^13C, and ^31P NMR spectra were recorded on Bruker AC 250, Bruker AC 360 and Varian 400 MHz instruments. […] Enzyme assays with fluorogenic substrates were performed on a Molecular Devices Analyst AD multimode plate reader in fluorescence mode with an excitation filter, emission filter and dichroic mirror at 360 nm, 425 nm, and 400 nm, respectively. Enzymatic hydrolysis of the phosphotyrosine-containing peptide DADE-phpsphotyrosine-GPAA (9a) was followed by observing an increase in absorbance at 280 nm using a Varian Cary50 spectrophotometer. […]

One may read the Km as the concentration of substrate that gives half-maximal velocity.

Where a SMILES comes first, the peptide text is derived from it. [ ]: non-standard residue; d: D form. pY = N[C@@H](Cc1ccc(OP(=O)(O)O)cc1)C(=O)O

T1 sequence (P15273 whole entry): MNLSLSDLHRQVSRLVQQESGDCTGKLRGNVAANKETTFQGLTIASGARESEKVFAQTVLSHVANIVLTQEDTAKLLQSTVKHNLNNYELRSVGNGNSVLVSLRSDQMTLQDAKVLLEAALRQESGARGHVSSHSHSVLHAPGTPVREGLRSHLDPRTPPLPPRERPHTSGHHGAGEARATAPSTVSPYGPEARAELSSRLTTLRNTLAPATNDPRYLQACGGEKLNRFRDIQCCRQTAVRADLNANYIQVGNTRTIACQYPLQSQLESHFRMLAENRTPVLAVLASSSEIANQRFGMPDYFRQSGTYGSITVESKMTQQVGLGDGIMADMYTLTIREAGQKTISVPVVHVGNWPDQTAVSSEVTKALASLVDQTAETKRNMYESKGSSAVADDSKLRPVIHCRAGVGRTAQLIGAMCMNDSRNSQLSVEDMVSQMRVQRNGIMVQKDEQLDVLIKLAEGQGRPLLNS
Chain of protein tyrosine kinase Csk (P41240 whole entry): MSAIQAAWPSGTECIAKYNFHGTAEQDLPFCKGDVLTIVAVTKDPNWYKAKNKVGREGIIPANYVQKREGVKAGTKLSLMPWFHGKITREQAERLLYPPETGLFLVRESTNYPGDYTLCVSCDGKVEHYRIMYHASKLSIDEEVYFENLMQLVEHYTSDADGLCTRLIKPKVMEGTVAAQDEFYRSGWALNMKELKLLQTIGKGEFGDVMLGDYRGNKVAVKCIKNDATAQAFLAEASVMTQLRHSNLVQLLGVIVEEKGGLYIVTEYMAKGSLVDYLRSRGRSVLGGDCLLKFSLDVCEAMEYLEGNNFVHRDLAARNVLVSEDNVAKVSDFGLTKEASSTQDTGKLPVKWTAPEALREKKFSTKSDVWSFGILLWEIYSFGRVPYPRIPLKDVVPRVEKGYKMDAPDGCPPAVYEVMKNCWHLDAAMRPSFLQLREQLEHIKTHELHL

As to `C[C@H](NC(=O)[C@H](C)NC(=O)[C@@H]1CCCN1C(=O)CNC(=O)[C@H](Cc1ccc(OP(=O)(O)O)cc1)NC(=O)[C@H](CCC(=O)O)NC(=O)[C@H](CC(=O)O)NC(=O)[C@H](C)NC(=O)[C@@H](N)CC(=O)O)C(N)=O` [9a, DADE-pY-GPAA-NH2] (H-DADE[pY]GPAA-NH2), in experiment [1], the “kcat (best fit to the Michaelis-Menten equation)” value (“kcat” for short) stood at 100 ± 20 s⁻¹ and the Km was found to be 2700 ± 800 µM.
`Cc1cc(=O)oc2cc(O)ccc12` [MU, 4-methylumbelliferone]: the “phosphorylation of substrate by Csk” value in experiment [2] is given as “Csk indeed phosphorylated MU to MUP”.
In the case of `Cc1cc(=O)oc2cc(OP(=O)(O)O)ccc12` [MUP], in experiment [1], the “kcat” value came to 5.7 ± 0.5 s⁻¹ and the Km was determined as 800 ± 200 µM.
Regarding DADE-pCAP-GPAA-NH2 [10a], the “kcat” value on human T-cell PTP (TCPTP) was determined as 35 ± 10 s⁻¹. Also, the Km at human T-cell PTP (TCPTP) (read-out: Km (best fit to the Michaelis-Menten equation)) was determined as 800 ± 300 µM.
